PMC12040169 (PLOS Biology, 2025)

Assay: in vitro
Settings: human, hela cells, % viability

Row | SMILES | viability at 28.5 h, 10 µM [%]
1 | CCc1nn2c(=O)cc(CN3C(=O)COc4cccnc43)nc2s1 [CBK306599] | 88.9
2 | CC(C)Cn1cncc1CN1C(=O)CC2(CCCC2)CC1=O [CBK306600] | 116
3 | CCOCC1CCCN1C(=O)Nc1ccc2sc(C(=O)N(C)C)cc2c1 (stereo not drawn) [CBK306601] | 98.3
4 | CCc1ccccc1-c1cccc(C(=O)NCC(O)CN(C)C)c1 (stereo not drawn) [CBK306604] | 92.9
5 | COCCN(C)C(=O)c1cn2cc(-c3cc(C)oc3C)n(C)c(=O)c2n1 [CBK306605] | 80.5
6 | CNc1cc(C(=O)N[C@@H]2CCOC[C@H]2Oc2ccc(CO)cc2)ccn1 [CBK306606] | 98.1
7 | CCc1csc(CCNc2ccc(-c3nc(C4CC4)no3)cn2)n1 [CBK306608] | 91.3
8 | CCCNC(=O)c1ccc(C)c(NC(=O)N[C@@H](CO)c2ccccc2)c1 [CBK306609] | 96.2
9 | Cc1nc(CCCn2cnc3cnccc3c2=O)sc1C [CBK306610] | 102
10 | O=C(Cc1cn2ccsc2n1)NCCCN1CCCc2ccccc21 [CBK306611] | 101
11 | CCCn1ncc(CN2CCC3(CC2)CC(C(=O)O)N(C(C)=O)C3)c1C (stereo not drawn) [CBK306612] | 86.7
12 | COc1nccc(N2CCN(C(=O)C3CC3)CC(O)C2)c1C#N (stereo not drawn) [CBK306613] | 79.1
13 | CCCCSc1nc(N)cc(N2CCC(C(=O)N3CCOCC3)CC2)n1 [CBK306619] | 96.8
14 | CN(C)C(=O)CC(O)c1cc2n(n1)CCN(Cc1cccs1)C2 (stereo not drawn) [CBK306620] | 113
15 | COc1ccc2c(c1)cc(C(=O)NCCN1CCCCC1CO)n2C (stereo not drawn) [CBK306621] | 114
16 | CN(CCC1CCOCC1)c1nc2c(c(=O)[nH]1)Cc1ccccc1OC2 [CBK306622] | 96.2
17 | Cc1nc(N2CCN(C)CC2)ncc1C(=O)NCCSc1cnn[nH]1 [CBK306623] | 88.2
18 | CCOCCC(=O)NC1CCCc2nc(N3CCC(CO)CC3)ncc21 (stereo not drawn) [CBK306624] | 92.8
19 | Cc1nc(CC(=O)Nc2nn(C)c3cccc(N4CCOCC4)c23)cs1 [CBK306627] | 89.7
20 | Cc1ccn2cc(CNC(=O)CCC(C)N3CCN(C)CC3)nc2c1 (stereo not drawn) [CBK306628] | 97.2
21 | NC1CC(c2cc(NCc3cn4ccccc4n3)ncn2)C1 (stereo not drawn) [CBK306631] | 112
22 | CCCn1nc(COc2cccc(F)c2)nc1C1CCN(C(C)=O)CC1 [CBK306637] | 97.7
23 | CO[C@@]12CC[C@H](OCC(=O)O)C[C@@H]1N(Cc1c(C)cnn1C)CC2 [CBK306638] | 95.6

Row | SMILES | viability at 28.5 h, 10 µM [%]
24 | COc1ccnc(N2CCN(C(=O)c3cccc4c3NCCC4)CC2)n1 [CBK306639] | 109
25 | Cc1cc(=O)n(CC(=O)NC(Cc2ccncc2)[C@H]2C[C@H](O)C2)nc1C (stereo partly drawn) [CBK306641] | 101
26 | COc1cncc(C(NC(=O)Cc2cn3ccsc3n2)[C@H]2C[C@H](O)C2)c1 (stereo partly drawn) [CBK306642] | 97.2
27 | CC(=O)c1cccc(-c2nc(CC3CCN(C)CC3)nn2CCO)c1 [CBK306645] | 98.3
28 | CN(C)S(=O)(=O)NC1CC(C)(C)Cc2c1cnn2-c1ccc(F)cc1 (stereo not drawn) [CBK306646] | 112
29 | CCCCC1C(=O)N(C)CCN1C(=O)NCc1cn2ccc(C)cc2n1 (stereo not drawn) [CBK306648] | 91.8
30 | COCCn1ccnc1C1CCN(C(=O)Cc2ccc(O)c(F)c2)CC1 [CBK306649] | 82.6
31 | COc1cccc2ncn(CCCn3ccnn3)c(=O)c12 [CBK306650] | 103
32 | COCCN(Cc1cnn(C)c1)C(=O)c1cc(=O)c2cccc(F)c2[nH]1 [CBK306651] | 83.8
33 | CCc1nccn1CCC(=O)NC1CCCN(Cc2ccccc2F)C1 (stereo not drawn) [CBK306652] | 78.9
34 | CC(C)(O)C1CCCN(C(=O)c2cc(COc3cccc(F)c3)[nH]n2)C1 (stereo not drawn) [CBK306653] | 99.9
35 | CCN(CC)CCCNc1nccc(-c2cn(C)nc2C)n1 [CBK306654] | 97.4
36 | CCc1nccn1CCCNC(=O)Nc1cc(-c2cccnc2)nn1C [CBK306657] | 88.3
37 | CCN(CCc1nc2cc(OC)ccc2[nH]1)C(=O)c1cc(C#N)cn1C [CBK306658] | 90.5
38 | COCC(=O)Nc1ccc(Cl)c(NC(=O)NCCN2CCCC2=O)c1 [CBK306663] | 87.9
39 | COCCn1c(CO)nnc1[C@H]1C[C@H](NC(=O)c2ccc(F)cc2F)C1 [CBK306665] | 102
40 | Cc1c(CN2CCC3(CC2)CC(c2ccccc2)CN(C)C3)cnn1C (stereo not drawn) [CBK306666] | 105
41 | Cn1c(CO)nnc1[C@H]1C[C@@H](NC(=O)COc2ccc(Cl)c(Cl)c2)C1 [CBK306667] | 101
42 | Cc1cc(C(=O)NCc2cccnc2N(C)C2CCCCC2)[nH]n1 [CBK306668] | 104
43 | Cc1ccn2c(C(=O)N(C)CCc3noc(C(C)C)n3)nnc2n1 [CBK306670] | 89.3
44 | CN(C)C(=O)CCNC(=O)c1ccc2c(c1)nc(N1CC[C@H](O)C1)n2C [CBK306671] | 92.4
45 | COc1ccnc(Cn2ncc(N3CCCC3)cc2=O)c1OC [CBK306672] | 82.7
46 | Cc1nc(N(C)C)ncc1C(=O)NCCSc1nnnn1C [CBK306673] | 93.1

Row | SMILES | viability at 28.5 h, 10 µM [%]
47 | COCC1(C(=O)N2CC(=O)N(c3ccc(Cl)cc3)CC2C)CCC1 (stereo not drawn) [CBK306674] | 89.2
48 | CCCn1ccnc1-c1cn(CCc2cc(O)nc(C)n2)nn1 [CBK306675] | 114
49 | Cc1c(Cl)c(C(=O)N[C@@H]2CCN(Cc3ccccn3)C[C@H]2O)nn1C [CBK306676] | 96
50 | Cc1noc(C)c1C(=O)N(C)Cc1cc(-c2ccncc2)no1 [CBK306677] | 102
51 | CCc1cc(C(=O)NC(CCn2ccnc2)c2ccccc2)cc(=O)[nH]1 (stereo not drawn) [CBK306679] | 114
52 | CCN(Cc1cn2ccc(C)cc2n1)CC1CCOCC1 [CBK306680] | 89.7
53 | CC(=O)c1[nH]c(C)c(C(=O)N(C)Cc2cc(-c3ccncc3)no2)c1C [CBK306681] | 97
54 | CCCCn1nc(C2CC2)nc1-c1cnn2cc(C)cnc12 [CBK306683] | 89.6
55 | Cc1ccccc1-c1noc(C(C)NC(=O)C2(Cn3ccnc3)CC2)n1 (stereo not drawn) [CBK306684] | 99.7
56 | Cc1nc2cc(OCc3nc(C(=O)N(C)CCN(C)C)co3)ccc2s1 [CBK306685] | 106
57 | COc1cncc(C(NC(=O)c2ccn3nnnc3c2)[C@H]2C[C@@H](O)C2)c1 (stereo partly drawn) [CBK306686] | 96.2
58 | NC(=O)c1c(F)cccc1-c1cc(NCCO)nc2[nH]ccc12 [CBK306689] | 112
59 | CCCOCCN1CCN(C(=O)c2nn3cc(C)cnc3c2Cl)CC1 [CBK306690] | 95.6
60 | CCCn1ccnc1CN1CCC2(CC1)CC(C(=O)O)N(C(C)=O)C2 (stereo not drawn) [CBK306691] | 92.9
61 | Cc1ccc(OCC(=O)NCC2CCN(c3cnn(C)c(=O)c3)C2)cc1 (stereo not drawn) [CBK306693] | 83.6
62 | CCCS(=O)(=O)N1CCC2(CCCN(Cc3cccc(F)c3F)C2=O)C1 (stereo not drawn) [CBK306694] | 90.8
63 | CCOC(=O)c1cn(CC2(CO)CCC2)cc(Oc2ccccc2)c1=O [CBK306698] | 97.2
64 | CCn1cc(C(=O)N2CCC(Oc3ccccc3C)(C(=O)O)CC2)cn1 [CBK306699] | 118
65 | COCCCn1cnnc1C(C)NC(=O)N(C)Cc1nccs1 (stereo not drawn) [CBK306702] | 111
66 | COc1ccc2[nH]nc(CN3CCCC(c4cc(O)nc(C)n4)C3)c2c1 (stereo not drawn) [CBK306703] | 87.6
67 | Cc1cc(C)c(C(=O)NC2CCN(c3ncccc3C#N)CC2)c(=O)[nH]1 [CBK306709] | 110
68 | CN(C)C(=O)c1cc2cc(NC(=O)CC3COCCN3)ccc2s1 (stereo not drawn) [CBK306710] | 105
69 | COc1cc(C)c(-c2nc(C)nc(C)c2C)c(C)c1 [CBK306711] | 90.5

Row | SMILES | viability at 28.5 h, 10 µM [%]
70 | Cc1nc(O)cc(CCn2cc(-c3cncnc3)nn2)n1 [CBK306712] | 96.2
71 | Cc1cc(N2CCCC(COc3ccccc3F)C2)nc(N)n1 (stereo not drawn) [CBK306714] | 74.4
72 | Cc1cc2cccc(NC(=O)NCc3cncn3CC(C)C)c2o1 [CBK306715] | 101
73 | CCn1ncnc1CN1CCN(Cc2ccccc2CO)CC1 [CBK306717] | 88.1
74 | CCn1ncc(CN(C)C(=O)CCN2CCCCCC2=O)c1C [CBK306718] | 97.2
75 | Cc1cc(C)n(CCNC(=O)N2CCC(Oc3cccnc3)CC2)n1 [CBK306719] | 109
76 | CSc1nnc(CC2CCN(C(=O)c3ccccc3C(C)=O)CC2)n1C [CBK306720] | 111
77 | Cc1ccc(OCc2occc2C(=O)NCCn2ccnc2C)cc1 [CBK306725] | 93.7
78 | CN1CC(C(=O)N(C)Cc2nc(-c3ccccc3)no2)NC1=O (stereo not drawn) [CBK306727] | 108
79 | CCn1cc(CN(CC(C)C)C(=O)c2ccccc2C#N)cn1 [CBK306729] | 102
80 | Cn1ncnc1CCNS(=O)(=O)c1cccc(C(=O)N2CCCCC2)c1 [CBK306731] | 101
81 | COCCN(C)c1nc2c(c(=O)[nH]1)Cc1ccccc1OC2 [CBK306737] | 105
82 | CCCn1ccnc1CNc1nc(C(C)(C)C)nc2c1cnn2C [CBK306739] | 91.3
83 | CO[C@@]12CC[C@@H](O)C[C@@H]1N(C(=O)c1cccc3c1NCCC3)CC2 [CBK306741] | 109
84 | COCCC(=O)NCC1Cc2cc(F)cc(-c3ccc(C(C)=O)s3)c2O1 (stereo not drawn) [CBK306742] | 109
85 | COc1c[nH]c(C(=O)NC(CCn2ccnc2)c2ccccc2)cc1=O (stereo not drawn) [CBK306743] | 94
86 | CC(=O)N1CCc2c(nc(N(C)C)nc2NCCCOC(C)C)C1 [CBK306745] | 84.4
87 | COC(=O)N1CCCCC1C(=O)NCCc1nc(C)cc(C(F)(F)F)n1 (stereo not drawn) [CBK306752] | 94.2
88 | O=C(c1cncs1)N1CCn2nc(C(O)Cc3ccccc3)cc2C1 (stereo not drawn) [CBK306754] | 90.6
89 | CN(Cc1nc(-c2ccccc2)no1)C(=O)C1CCOC1 (stereo not drawn) [CBK306755] | 107
90 | O=C(c1cn2cc(-c3cccs3)n(CC3CC3)c(=O)c2n1)N1CCCC1 [CBK306756] | 92.8
